Assay results: ChEMBL document CHEMBL3769303, “Discovery of membrane active benzimidazole quinolones-based topoisomerase inhibitors as potential DNA-binding antimicrobial agents” (Eur J Med Chem, 2016)
≈ marks a conversion by molar mass, not a printed value. Calls of active or inactive are those of the source. The calls are words filed in the database; no cut-off is given here.

Tests used:
Cyberlindnera jadinii = test: Antifungal activity against Candida utilis ATCC 9950 after 24 hrs by micro broth dilution method; type: functional; settings: Williopsis jadinii, ATCC 9950, 24 h
Escherichia coli [1] = test: Antibiofilm activity against Escherichia coli DH52 assessed as log10 CFU count at 0.25 ug/ml after 24 hrs (reference value: 16.2 log10CFU/ml); type: functional
Saccharomyces cerevisiae = test: Antifungal activity against Saccharomyces cerevisiae ATCC 9763 after 24 hrs by micro broth dilution method; type: functional; settings: ATCC 9763, 24 h
Staphylococcus aureus [2] = test: Antibacterial activity against methicillin-resistant Staphylococcus aureus N315 by micro broth dilution method; type: functional
Staphylococcus aureus [3] = test: Bactericidal activity against methicillin-resistant Staphylococcus aureus N315 assessed as reduction in log10 CFU count at 6 times MIC after 24 hrs by time kill assay; type: functional
Escherichia coli [4] = test: Antibiofilm activity against Escherichia coli DH52 assessed as log10 CFU count at 2 ug/ml after 24 hrs (reference value: 16.2 log10CFU/ml); type: functional
Bacillus spizizenii = test: Antibacterial activity against Bacillus subtilis ATCC 6633 by micro broth dilution method; type: functional
Shigella dysenteriae = test: Antibacterial activity against Shigella dysenteriae by micro broth dilution method; type: functional
Micrococcus luteus [5] = test: Potency index, ratio of ciprofloxacin MIC to compound MIC for Micrococcus luteus ATCC 4698; type: functional, NCTC 2665
Escherichia coli [6] = test: Antibiofilm activity against Escherichia coli DH52 assessed as reduction in log10 CFU count after 48 hrs; type: functional, organism-based; settings: DH52, 48 h
Escherichia coli [7] = test: Antibiofilm activity against Escherichia coli DH52 assessed as log10 CFU count at 0.5 ug/ml after 24 hrs (reference value: 16.2 log10CFU/ml); type: functional
Escherichia coli [8] = test: Inhibition of Escherichia coli topoisomerase 4 assessed as DNA relaxation using PUC19T-DNA at 10 uM after 2 hrs by ehtidium bromide staining-based agarose gel electrophoresis
Bacillus [9] = test: Potency index, ratio of clinafloxacin MIC to compound MIC for Bacillus proteus ATCC 13315; type: functional
Staphylococcus aureus [10] = test: Antibiofilm activity against methicillin-resistant Staphylococcus aureus N315 assessed as log10 CFU count at 0.125 ug/ml after 24 hrs (reference value: 13.6 log10 CFU/ml); type: functional
Staphylococcus aureus [11] = test: Antibiofilm activity against methicillin-resistant Staphylococcus aureus N315 assessed as reduction in log10 CFU count after 24 hrs; type: functional, organism-based; settings: N315, 24 h
Escherichia coli [12] = test: Antibacterial activity against Escherichia coli DH52 by micro broth dilution method; type: functional
Staphylococcus aureus [13] = test: Antibiofilm activity against methicillin-resistant Staphylococcus aureus N315 assessed as log10 CFU count at 1 ug/ml after 24 hrs (reference value: 13.6 log10 CFU/ml); type: functional
Staphylococcus aureus [14] = test: Antibacterial activity against methicillin-resistant Staphylococcus aureus N315 assessed as membrane permeabilization at 12 times MIC measured for 15 mins by propidium iodide staining-based method; type: functional, organism-based
[15] = Antibacterial activity against Bacillus proteus ATCC 13315 by micro broth dilution method; type: functional
Staphylococcus aureus [16] = test: Antibiofilm activity against methicillin-resistant Staphylococcus aureus N315 assessed as log10 CFU count at 0.25 ug/ml after 24 hrs (reference value: 13.6 log10 CFU/ml); type: functional
Salmonella enterica [17] = test: Potency index, ratio of norfloxacin MIC to compound MIC for Salmonella enterica ATCC 14028; type: functional
Salmonella enterica [18] = test: Potency index, ratio of clinafloxacin MIC to compound MIC for Salmonella enterica ATCC 14028; type: functional
Escherichia coli [19] = test: Antibacterial activity against Escherichia coli DH52 assessed as membrane permeabilization at 12 times MIC measured for 15 mins by propidium iodide staining-based method; type: functional, organism-based
Micrococcus luteus [20] = test: Antibacterial activity against Micrococcus luteus ATCC 4698 by micro broth dilution method; type: functional; settings: NCTC 2665
Candida albicans = test: Antifungal activity against Candida albicans ATCC 10231 after 24 hrs by micro broth dilution method; type: functional; settings: ATCC 10231, 24 h
Staphylococcus aureus [21] = test: Antibiofilm activity against methicillin-resistant Staphylococcus aureus N315 assessed as log10 CFU count at 2 ug/ml after 24 hrs (reference value: 13.6 log10 CFU/ml); type: functional
Staphylococcus aureus [22] = test: Antibacterial activity against Staphylococcus aureus ATCC 25923 by micro broth dilution method; type: functional
Bacillus [23] = test: Potency index, ratio of chloromycin MIC to compound MIC for Bacillus proteus ATCC 13315; type: functional
Staphylococcus aureus [24] = test: Antibiofilm activity against methicillin-resistant Staphylococcus aureus N315 after 24 hrs by crystal violet staining-based plate reader assay; type: functional, organism-based; settings: N315, 24 h
Micrococcus luteus [25] = test: Potency index, ratio of clinafloxacin MIC to compound MIC for Micrococcus luteus ATCC 4698; type: functional, NCTC 2665
Escherichia coli [26] = test: Antibacterial activity against Escherichia coli JM109 by micro broth dilution method; type: functional
Micrococcus luteus [27] = test: Potency index, ratio of chloromycin MIC to compound MIC for Micrococcus luteus ATCC 4698; type: functional, NCTC 2665
Calf thymus DNA = test: Binding affinity to calf thymus DNA by UV-visible spectroscopy; type: nucleic-acid assay; settings: Bos taurus
[28] = Antifungal activity against Candida mycoderma ATCC 9888 after 24 hrs by micro broth dilution method; type: functional; settings: Candida vini
Pseudomonas aeruginosa = test: Antibacterial activity against Pseudomonas aeruginosa ATCC 27853 by micro broth dilution method; type: functional
Escherichia coli [29] = test: Antibiofilm activity against Escherichia coli DH52 assessed as log10 CFU count at 4 ug/ml after 24 hrs (reference value: 16.2 log10CFU/ml); type: functional
Staphylococcus aureus [30] = test: Antibacterial activity against methicillin-resistant Staphylococcus aureus N315 measured after 12 passages; type: functional
Escherichia coli [31] = test: Antibiofilm activity against Escherichia coli DH52 after 24 hrs by crystal violet staining-based plate reader assay; type: functional, organism-based; settings: DH52, 24 h
Salmonella enterica [32] = test: Potency index, ratio of chloromycin MIC to compound MIC for Salmonella enterica ATCC 14028; type: functional
Micrococcus luteus [33] = test: Potency index, ratio of norfloxacin MIC to compound MIC for Micrococcus luteus ATCC 4698; type: functional, NCTC 2665
Aspergillus flavus = test: Antifungal activity against Aspergillus flavus ATCC 204304 after 24 hrs by micro broth dilution method; type: functional; settings: ATCC 204304, 24 h
HEK293 = test: Cytotoxicity against HEK293 cells after 24 hrs by CCK8 assay; type: cell-based; settings: Homo sapiens, HEK293, 24 h
Salmonella enterica [34] = test: Antibacterial activity against Salmonella enterica ATCC 14028 by micro broth dilution method; type: functional

O=C(O)c1cn(C2CC2)c2cc(N3CCN(Cc4nc5ccccc5n4Cc4ccc(Cl)cc4Cl)CC3)c(F)cc2c1=O
MIC80 (Cyberlindnera jadinii): 0.125 µg/mL (≈ 0.201 µM)
Activity (Escherichia coli [1]): 12.2 log10CFU/ml
MIC80 (Saccharomyces cerevisiae): 1 µg/mL (≈ 1.61 µM)
MIC (Staphylococcus aureus [2]): 0.125 µg/mL (≈ 0.201 µM)
Activity (Staphylococcus aureus [3]): 3 log10CFU/ml
Activity (Escherichia coli [4]): 7.2 log10CFU/ml
MIC (Bacillus spizizenii): 4 µg/mL (≈ 6.45 µM)
MIC (Shigella dysenteriae): 1 µg/mL (≈ 1.61 µM)
Ratio (Micrococcus luteus [5]): 32
EC50 (Escherichia coli [6]): 1.5 µg/mL (≈ 2.42 µM)
Activity (Escherichia coli [7]): 10.1 log10CFU/ml
inhibition (Escherichia coli [8]): Active
Ratio (Bacillus [9]): 16
Activity (Staphylococcus aureus [10]): 10.5 log10CFU/ml
EC50 (Staphylococcus aureus [11]): 0.76 µg/mL (≈ 1.22 µM)
MIC (Escherichia coli [12]): 0.125 µg/mL (≈ 0.201 µM)
Activity (Staphylococcus aureus [13]): 5 log10CFU/ml
Activity (Staphylococcus aureus [14]): Active
MIC [15]: 0.0312 µg/mL (≈ 0.0503 µM)
Activity (Staphylococcus aureus [16]): 9.6 log10CFU/ml
Ratio (Salmonella enterica [17]): 32
Ratio (Salmonella enterica [18]): 8
Activity (Escherichia coli [19]): Active
MIC (Micrococcus luteus [20]): 0.0625 µg/mL (≈ 0.101 µM)
MIC80 (Candida albicans): 0.5 µg/mL (≈ 0.806 µM)
Activity (Staphylococcus aureus [21]): 0.1 log10CFU/ml
MIC (Staphylococcus aureus [22]): 8 µg/mL (≈ 12.9 µM)
Ratio (Bacillus [23]): 1025
IC50 (Staphylococcus aureus [24]): 0.125 µg/mL (≈ 0.201 µM)
Ratio (Micrococcus luteus [25]): 8
MIC (Escherichia coli [26]): 1 µg/mL (≈ 1.61 µM)
Ratio (Micrococcus luteus [27]): 128
K (Calf thymus DNA): 4.3 ×10⁴ L/mol
MIC80 [28]: 0.25 µg/mL (≈ 0.403 µM)
MIC (Pseudomonas aeruginosa): 0.5 µg/mL (≈ 0.806 µM)
Activity (Escherichia coli [29]): 3.6 log10CFU/ml
MIC (Staphylococcus aureus [30]): 0.125 µg/mL (≈ 0.201 µM)
IC50 (Escherichia coli [31]): 0.25 µg/mL (≈ 0.403 µM)
Ratio (Salmonella enterica [32]): 1025
Ratio (Micrococcus luteus [33]): 32
MIC80 (Aspergillus flavus): 0.5 µg/mL (≈ 0.806 µM)
IC50 (HEK293): 106 µg/mL (≈ 171 µM)
MIC (Salmonella enterica [34]): 0.0312 µg/mL (≈ 0.0503 µM)
